In brackets after ≈: the same amount, converted by molar mass.
Assays:
MRSE CAN-ICU 61589 = assay type: cell-based, methicillin-resistant S. epidermidis; details: CAN-ICU 61589, 24 h
Method: (§1) Antimicrobial activity of the purified lipopeptoids was determined without replication against a panel of clinically relevant and standard reference bacterial strains according to CLSI macrobroth standards. Stock solutions at 512 µg/mL were prepared in water, with DMSO as needed, and testing was performed in glass test tubes using Muller-Hinton broth and bacteria adjusted to 5 × 10^5 CFU/mL. Bacteria were incubated with the lipopeptoid of interest for 24 hr at 37°C prior to reading.
(§2) The bacteria Staphylococcus aureus ATCC 29213, methicillin-resistant S. aureus ATCC 33592, Staphylococcus epidermidis ATCC 14990, Enterococcus faecalis ATCC 29212, E. faecium ATCC 27270, Streptococcus pneumoniae ATCC 49619, Escherichia coli ATCC 25922, Pseudomonas aeruginosa ATCC 27853, and Klebsiella pneumoniae ATCC 13883 were acquired from the American Type Culture Collection (ATCC) and used as quality controls. The clinical strains methicillin-resistant S. epidermidis (MRSE) CAN-ICU 61589, E. coli CAN-ICU 61714, E. coli CAN-ICU 63074, P. aeruginosa CAN-ICU 62308, Stenotrophomonas maltophilia CAN-ICU 62584, Acinetobacter baumannii CAN-ICU 63169 were obtained from hospitals across Canada as part of the CAN-ICU studies, while methicillin-susceptible S. epidermidis (MSSE) 81388 was obtained from the 2008 CANWARD study.
(§3) After subculturing the relevant bacteria twice from frozen stock, in vitro activities of the antimicrobials were determined by macrobroth dilution methodology in accordance with the Clinical and Laboratory Standards Institute (CLSI) guidelines (3). The MICs were determined using glass test tubes (2 mL/tube) containing doubling antimicrobial dilutions of cation adjusted Mueller-Hinton broth inoculated to achieve a final concentration of approximately 5 x 10^5 CFU/mL, incubated in ambient air for 24 hr prior to reading. Colony counts were performed periodically to confirm inocula. The ATCC organisms […] ATCC 49619, Staphylococcus aureus ATCC 29213, Enterococcus faecalis ATCC 29212, Escherichia coli ATCC 25922, and Pseudomonas aeruginosa ATCC 27853 were used as quality control and to allow easy comparison to previously tested antimicrobials. Each test in this series was performed without replication. In our experience with cationic amphiphiles the results are accurate to within a single doubling.

S.aureus ATCC 29213 = assay type: cell-based, Staphylococcus aureus; details: ATCC 29213, 24 h
Method: as §1, §2, §3

ovine erythrocytes = assay: Haemolytic assay; assay type: cell-based, sheep; details: ovine erythrocytes in Tris buffered saline, 30 minutes, absorbance of supernatant at 540 nm
Method: Mammalian cell toxicity was determined by measuring lysis of ovine erythrocytes, a standard model for human cell toxicity. Cells were prewashed with Tris buffered saline and then incubated with a variety of lipopeptoid concentrations for 30 minutes. Following centrifugation, lysis was evaluated by testing the absorbance of the solution at 540 nm, with 0.5% NH4OH used as a positive control.
Toxicity to mammalian cells was determined using a sheep red blood cell (erythrocyte) haemolytic assay (4). Erythrocytes were washed and resuspended in Tris buffered saline prior to use, at a concentration of 1.46 - 4.5 x 10^9 cells/mL (on average 3.08 x 10^9 cells/mL). The cell suspension was diluted with varying concentrations of antimicrobials, from 50 μg/mL to 1 mg/mL and incubated for thirty minutes (final erythrocyte concentration 4.08 x 10^8 cells/mL). The samples were centrifuged following treatment and the absorbance of the supernatant was measured at 540 nm. A solution of 0.5% […] was used as a positive control, with normal buffered solution as the negative control. The toxicity was assessed as a function of percent haemolysis.

MSSE 81388 CANWARD 2008 = assay type: cell-based, methicillin-susceptible S. epidermidis; details: 24 h
Method: as §1, §2, §3

K.pneumoniae ATCC 13883 = assay type: cell-based, Klebsiella pneumoniae; details: ATCC 13883, 24 h
Method: as §1, §2, §3

MRSA ATCC 33592 = assay type: cell-based, methicillin-resistant S. aureus; details: ATCC 33592, 24 h
Method: as §1, §2, §3

[1] = tested on: A. baumannii CAN-ICU 63169; assay type: cell-based, Acinetobacter baumannii; details: CAN-ICU 63169, 24 h
Method: as §1, §2, §3

E.coli CAN-ICU 63074 = assay type: cell-based, Escherichia coli; details: CAN-ICU 63074, 24 h
Method: as §1, §2, §3

E.coli CAN-ICU 61714 = assay type: cell-based, Escherichia coli; details: CAN-ICU 61714, 24 h
Method: as §1, §2, §3

E.coli ATCC 25922 = assay type: cell-based, Escherichia coli; details: ATCC 25922, 24 h
Method: as §1, §2, §3

E. faecalis ATCC 29212 = assay type: cell-based, Enterococcus faecalis; details: ATCC 29212, 24 h
Method: as §1, §2, §3

E. faecium ATCC 27270 = assay type: cell-based; details: ATCC 27270, 24 h
Method: as §1, §2, §3

S.pneumoniae ATCC 49619 = assay type: cell-based, Streptococcus pneumoniae; details: ATCC 49619, 24 h
Method: as §1, §2, §3

[2] = tested on: S. maltophilia CAN-ICU 62584; assay type: cell-based, Stenotrophomonas maltophilia; details: CAN-ICU 62584, 24 h
Method: as §1, §2, §3

P.aeruginosa ATCC 27853 = assay type: cell-based, Pseudomonas aeruginosa; details: ATCC 27853, 24 h
Method: as §1, §2, §3

[3] = tested on: P.aeruginosa CAN-ICU 62308; assay type: cell-based, Pseudomonas aeruginosa; details: CAN-ICU 62308, 24 h
Method: as §1, §2, §3

Row | MIC MRSE (MRSE CAN-ICU 61589) | MIC MRSE in the presence of 4% bovine serum albumin (MRSE CAN-ICU 61589) | MIC S.aureus (S.aureus ATCC 29213) | MIC S.aureus in the presence of 4% bovine serum albumin (S.aureus ATCC 29213) | MIC MSSE (MSSE 81388 CANWARD 2008) | MIC MSSE in the presence of 4% bovine serum albumin (MSSE 81388 CANWARD 2008) | MIC K.pneumoniae (K.pneumoniae ATCC 13883) | MIC K.pneumoniae in the presence of 4% bovine serum albumin (K.pneumoniae ATCC 13883) | MIC MRSA (MRSA ATCC 33592) | MIC MRSA in the presence of 4% bovine serum albumin (MRSA ATCC 33592) | MIC A. baumannii [1] | MIC A. baumannii in the presence of 4% bovine serum albumin [1] | MIC E.coli (E.coli CAN-ICU 63074) | MIC E.coli in the presence of 4% bovine serum albumin (E.coli CAN-ICU 63074) | MIC E.coli (E.coli CAN-ICU 61714) | MIC E.coli in the presence of 4% bovine serum albumin (E.coli CAN-ICU 61714) | MIC E.coli (E.coli ATCC 25922) | MIC E.coli in the presence of 4% bovine serum albumin (E.coli ATCC 25922) | MIC E. faecalis (E. faecalis ATCC 29212) | MIC E. faecalis in the presence of 4% bovine serum albumin (E. faecalis ATCC 29212) | Structure (SMILES) | other results
1 | 128 µg/mL (≈ 220 µM) | 512 µg/mL | 128 µg/mL (≈ 220 µM) | 512 µg/mL | 128 µg/mL (≈ 220 µM) | 256 µg/mL | 512 µg/mL (≈ 879 µM) | 512 µg/mL | 128 µg/mL (≈ 220 µM) | 512 µg/mL | 512 µg/mL (≈ 879 µM) | >512 µg/mL | 512 µg/mL (≈ 879 µM) | >512 µg/mL | 512 µg/mL (≈ 879 µM) | >512 µg/mL | 512 µg/mL (≈ 879 µM) | 512 µg/mL | 256 µg/mL (≈ 439 µM) | >512 µg/mL | CCCCCCCCCCC(=O)N(CCCCNC(=N)N)CC(=O)NCC(=O)N(CCCCNC(=N)N)CC(N)=O [C11-NhargGNharg] | Percent haemolysis at 100µg/mL of compound (ovine erythrocytes): 1.49%; MIC E. faecium (E. faecium ATCC 27270): 256 µg/mL (≈ 439 µM); MIC E. faecium in the presence of 4% bovine serum albumin (E. faecium ATCC 27270): 512 µg/mL; MIC S.pneumoniae (S.pneumoniae ATCC 49619): 512 µg/mL (≈ 879 µM); MIC S.pneumoniae in the presence of 4% bovine serum albumin (S.pneumoniae ATCC 49619): >512 µg/mL; MIC S. maltophilia [2]: >512 µg/mL; MIC S. maltophilia in the presence of 4% bovine serum albumin [2]: >512 µg/mL; MIC P.aeruginosa (P.aeruginosa ATCC 27853): >512 µg/mL; MIC P.aeruginosa in the presence of 4% bovine serum albumin (P.aeruginosa ATCC 27853): >512 µg/mL; MIC P.aeruginosa [3]: 512 µg/mL (≈ 879 µM); MIC P.aeruginosa in the presence of 4% bovine serum albumin [3]: 512 µg/mL
2 | 256 µg/mL (≈ 368 µM) | 512 µg/mL | 128 µg/mL (≈ 184 µM) | 512 µg/mL | 64 µg/mL (≈ 92 µM) | 512 µg/mL | >512 µg/mL | >512 µg/mL | 128 µg/mL (≈ 184 µM) | 512 µg/mL | >512 µg/mL | >512 µg/mL | >512 µg/mL | >512 µg/mL | >512 µg/mL | >512 µg/mL | >512 µg/mL | >512 µg/mL | 512 µg/mL (≈ 736 µM) | >512 µg/mL | CCCCCCCCCCC(=O)N(CCCCNC(=N)N)CC(=O)N(CCCCNC(=N)N)CC(=O)N(CCCCNC(=N)N)CC(N)=O [C11-NhargNhargNharg] | MIC E. faecium (E. faecium ATCC 27270): 256 µg/mL (≈ 368 µM); MIC E. faecium in the presence of 4% bovine serum albumin (E. faecium ATCC 27270): 512 µg/mL; MIC S.pneumoniae (S.pneumoniae ATCC 49619): 512 µg/mL (≈ 736 µM); MIC S.pneumoniae in the presence of 4% bovine serum albumin (S.pneumoniae ATCC 49619): >512 µg/mL; MIC S. maltophilia [2]: >512 µg/mL; MIC S. maltophilia in the presence of 4% bovine serum albumin [2]: >512 µg/mL; MIC P.aeruginosa (P.aeruginosa ATCC 27853): >512 µg/mL; MIC P.aeruginosa in the presence of 4% bovine serum albumin (P.aeruginosa ATCC 27853): >512 µg/mL; MIC P.aeruginosa [3]: >512 µg/mL; MIC P.aeruginosa in the presence of 4% bovine serum albumin [3]: >512 µg/mL
